Where only a bound is given, the exact number is not on record here.

The text below walks through data of patent US10501458B2, “Substituted bicyclic fused ring compounds as indoleamine-2,3-dioxygenase inhibitors” (Merck Sharp & Dohme Corp., priority 2015, dated 2019).

Test [1] concerns the target T1, IDO (Homo sapiens (Human), UniProt P14902). Briefly: hIDO biochemical coupled assay. The settings on record: 45 μM L-tryptophan, 17 minutes at room temperature; for IC50: read-out: hIDO biochemical assay, pIC50 (converted). The procedure: (§1) Exemplary compounds of the invention were prepared, and tested to determine their effect as TDO and/or IDO inhibitors. Two different assays were employed: 1. a cell-based assay for detecting the effect of test compounds on kynurenine production in two different cancer cell types. This assay utilised cancer cells which expressed either TDO or IDO and as such was used as a means of testing compound activity at these two enzymes in a cell-based context. 2. a TDO and IDO biochemical coupled assay which utilised recombinantly produced and purified TDO and IDO enzymes in combination with the enzyme formamidase. This coupled enzyme system allowed conversion of N-formylkynurenine produced by TDO or IDO activity to kynurenine which was then quantified by fluorescence following addition of Erhlich's Reagent The protocols for these are set out below.
(§2) TDO and IDO Biochemical Coupled Assay
(§3) Recombinant human IDO or TDO was incubated in 50 mM KPO4 (pH 7.0), 0.5 mM EGTA, 0.5 mM EDTA, 0.05% Triton™ X100, 20 mM ascorbate, 10 μM methylene blue, 500 U/ml catalase, 50 μg/ml KynB (kynurenine formamidase). TDO assays were carried out in the presence of 330 μM L-tryptophan, while IDO assays had the addition of 45 μM L-tryptophan. After incubation for 17 minutes at room temperature the reactions were stopped by the addition of Erhlich's reagent and incubated at room temperature for 5 minutes before the fluorescence was read (Ex 475, Em530).

Test [2] addresses T1, IDO. Briefly: SKOV3 kynurenine cell-based assay (IDO induced by IFN-γ). The note with it: SKOV3 human ovarian adenocarcinoma cells, 500 ng/ml IFN-γ, 500 μM L-tryptophan, 48 hours; for IC50: read-out: SKOV3 Kynurenine cell based assay, pIC50 (converted). The protocol:
as §1
(§4) Cell Based Assay for Detection of Kynurenine Produced by TDO and/or IDO
(§5) A172 (human glioblastoma) and SKOV3 (human ovarian adenocarcinoma) cells were seeded in a 96 well plate at 30,000 or 40,000 cells per well respectively in phenol red-free RPMI supplemented with 10% FCS, 2 mM L-glutamine and 500 μM L-tryptophan. IDO expression was induced in the SKOV3 cells by the addition of 500 ng/ml IFN-γ. Cells were incubated at 37° C. with or without the addition of test compound. After 48 hours, the cells were removed by centrifugation and Erhlich's reagent was added to the supernatant. The Erhlich's reagent was incubated for 5 minutes before the absorbance was read at 490 nm.

In test [3] the target is T2, TDO (Homo sapiens (Human), UniProt P48775). Kind of test: A172 kynurenine cell-based assay. The settings on record: A172 human glioblastoma cells, 500 μM L-tryptophan, 48 hours; for IC50: read-out: A172 Kynurenine cell based assay, pIC50 (converted). The protocol:
as §1, §4, §5

For test [4], the target named is T2, TDO. Briefly: hTDO biochemical coupled assay. The note with it: 330 μM L-tryptophan, 17 minutes at room temperature. The protocol: as §1, §2, §3

T2 sequence (P48775 whole entry): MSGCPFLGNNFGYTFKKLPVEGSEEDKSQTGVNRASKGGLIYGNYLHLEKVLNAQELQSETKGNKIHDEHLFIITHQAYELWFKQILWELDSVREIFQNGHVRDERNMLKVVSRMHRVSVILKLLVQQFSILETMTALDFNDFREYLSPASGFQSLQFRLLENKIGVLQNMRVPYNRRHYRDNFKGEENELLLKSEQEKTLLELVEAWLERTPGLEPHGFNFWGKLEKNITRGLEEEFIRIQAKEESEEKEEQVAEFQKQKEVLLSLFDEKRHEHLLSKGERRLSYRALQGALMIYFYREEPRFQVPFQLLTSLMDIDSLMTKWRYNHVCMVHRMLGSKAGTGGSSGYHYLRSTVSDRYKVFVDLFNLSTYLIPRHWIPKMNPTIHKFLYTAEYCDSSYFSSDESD
T1 sequence (P14902 whole entry): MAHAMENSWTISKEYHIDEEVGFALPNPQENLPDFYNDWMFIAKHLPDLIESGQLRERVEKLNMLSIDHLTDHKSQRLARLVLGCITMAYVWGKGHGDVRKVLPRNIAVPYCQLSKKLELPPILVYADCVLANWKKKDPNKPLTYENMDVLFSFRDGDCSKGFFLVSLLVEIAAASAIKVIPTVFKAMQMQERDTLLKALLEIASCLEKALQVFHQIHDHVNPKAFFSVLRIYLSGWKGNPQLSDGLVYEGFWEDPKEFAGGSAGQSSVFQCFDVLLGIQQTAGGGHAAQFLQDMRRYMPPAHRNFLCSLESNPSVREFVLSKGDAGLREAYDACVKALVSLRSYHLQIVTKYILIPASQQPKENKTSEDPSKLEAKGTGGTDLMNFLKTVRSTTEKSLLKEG

In the case of `OCCc1cc(C(F)(F)F)cn2cncc12` [Compound 1008], the “hIDO biochemical assay, pIC50” value on IDO [1] is “+/− (+/− = pIC50 <4.00)”. Besides, the “SKOV3 Kynurenine cell based assay, pIC50” value at IDO [2] is reported as “+ (+ = pIC50 4.00-4.49)”. Moreover, the “A172 Kynurenine cell based assay, pIC50” value at TDO [3] is recorded as “+/− (+/− = pIC50 <4.00)”. Moreover, at TDO [4], the “hTDO biochemical assay, pIC50” value is “+/− (+/− = pIC50 <4.00)”.
As for `CS(=O)(=O)c1ccc(-c2cc(C(F)(F)F)cc3cncn23)cc1` [Compound 1015, 5-(4-(methylsulfonyl)phenyl)-7-(trifluoromethyl)imidazo[1,5-a]pyridine], the IC50 is 3.24 to 31.6 µM on IDO [1]; 32.4 to 100 µM at IDO [2]; 3.24 to 31.6 µM on TDO [3]; 32.4 to 100 µM at TDO [4] (read-out: hTDO biochemical assay, pIC50 (converted)).
`CS(=O)(=O)N1CCC(c2cc(C(F)(F)F)cc3cncn23)CC1` [Compound 1017]: at IDO [1], the “hIDO biochemical assay, pIC50” value was “+ (+ = pIC50 4.00-4.49)”. Also, the “SKOV3 Kynurenine cell based assay, pIC50” value on IDO [2] was “+/− (+/− = pIC50 <4.00)”. Moreover, on TDO [3], the “A172 Kynurenine cell based assay, pIC50” value is reported as “++ (++ = pIC50 4.50-5.49)”. The “hTDO biochemical assay, pIC50” value on TDO [4] is on record as “+ (+ = pIC50 4.00-4.49)”.
With `CC(=O)N1CCN(c2cc(C(F)(F)F)cn3cncc23)CC1` [Compound 1002], the “hIDO biochemical assay, pIC50” value on IDO [1] is reported as “+/− (+/− = pIC50 <4.00)”. In addition, the “SKOV3 Kynurenine cell based assay, pIC50” value on IDO [2] is recorded as “+ (+ = pIC50 4.00-4.49)”. Moreover, the “A172 Kynurenine cell based assay, pIC50” value at TDO [3] is on record as “++ (++ = pIC50 4.50-5.49)”.
Consider `CC(=O)N1CCN(c2cc(C(F)(F)F)cc3cncn23)CC1` [Compound 1018], for which the “hIDO biochemical assay, pIC50” value at IDO [1] is given as “++ (++ = pIC50 4.50-5.49)”. In addition, the “SKOV3 Kynurenine cell based assay, pIC50” value at IDO [2] is on record as “+ (+ = pIC50 4.00-4.49)”. Besides, the “A172 Kynurenine cell based assay, pIC50” value at TDO [3] is given as “++ (++ = pIC50 4.50-5.49)”. Also, the “hTDO biochemical assay, pIC50” value at TDO [4] is “++ (++ = pIC50 4.50-5.49)”.
Regarding `CS(=O)(=O)N1CCN(c2cc(Cl)cn3cncc23)CC1` [Compound 1006], on IDO [1], the “hIDO biochemical assay, pIC50” value was “++ (++ = pIC50 4.50-5.49)”. The “SKOV3 Kynurenine cell based assay, pIC50” value on IDO [2] is on record as “+ (+ = pIC50 4.00-4.49)”. Further, the “A172 Kynurenine cell based assay, pIC50” value on TDO [3] is recorded as “++ (++ = pIC50 4.50-5.49)”.
`O=C(Nc1cccn2cncc12)c1ccccc1` [Compound 1001]: at IDO [1], the “hIDO biochemical assay, pIC50” value is given as “+/− (+/− = pIC50 <4.00)”. For the same compound, the “SKOV3 Kynurenine cell based assay, pIC50” value at IDO [2] is “+ (+ = pIC50 4.00-4.49)”. Moreover, the “A172 Kynurenine cell based assay, pIC50” value at TDO [3] is on record as “+/− (+/− = pIC50 <4.00)”. Moreover, the “hTDO biochemical assay, pIC50” value at TDO [4] was “+/− (+/− = pIC50 <4.00)”.
Regarding `O=C(O)N1CCC(c2cc(C(F)(F)F)cc3cncn23)CC1` [Compound 1020], on IDO [1], the “hIDO biochemical assay, pIC50” value is “+ (+ = pIC50 4.00-4.49)”. The “SKOV3 Kynurenine cell based assay, pIC50” value at IDO [2] is on record as “+/− (+/− = pIC50 <4.00)”. Further, the “A172 Kynurenine cell based assay, pIC50” value at TDO [3] was “+ (+ = pIC50 4.00-4.49)”. On TDO [4], the “hTDO biochemical assay, pIC50” value is reported as “++ (++ = pIC50 4.50-5.49)”.
In the case of `CS(=O)(=O)NC1CCN(c2cc(C(F)(F)F)cc3cncn23)CC1` [Compound 1027], the “hIDO biochemical assay, pIC50” value at IDO [1] is “++ (++ = pIC50 4.50-5.49)”. At IDO [2], the “SKOV3 Kynurenine cell based assay, pIC50” value is on record as “++ (++ = pIC50 4.50-5.49)”. Besides, at TDO [3], the “A172 Kynurenine cell based assay, pIC50” value is recorded as “++ (++ = pIC50 4.50-5.49)”.
As for `CS(=O)(=O)c1ccc(-c2cc(Cl)cn3cncc23)cc1` [Compound 1010, 6-chloro-8-(4-(methylsulfonyl)phenyl)imidazo[1,5-a]pyridine], the IC50 is 3.24 to 31.6 µM on IDO [1], 32.4 to 100 µM at IDO [2] and not above 3.16 µM at TDO [3].
On to `CS(=O)(=O)N1CCN(c2cc(Cl)cc3cncn23)CC1` [Compound 1013], for which the “hIDO biochemical assay, pIC50” value on IDO [1] is on record as “++ (++ = pIC50 4.50-5.49)”. At IDO [2], the “SKOV3 Kynurenine cell based assay, pIC50” value is listed as “+ (+ = pIC50 4.00-4.49)”. For the same compound, the “A172 Kynurenine cell based assay, pIC50” value at TDO [3] was “+ (+ = pIC50 4.00-4.49)”. In addition, on TDO [4], the “hTDO biochemical assay, pIC50” value is on record as “++ (++ = pIC50 4.50-5.49)”.
With `OC1(c2cc(C(F)(F)F)cn3cncc23)CCCCC1` [Compound 1028], at IDO [1], the “hIDO biochemical assay, pIC50” value is given as “++ (++ = pIC50 4.50-5.49)”. Further, at IDO [2], the “SKOV3 Kynurenine cell based assay, pIC50” value is “++ (++ = pIC50 4.50-5.49)”. Also, at TDO [3], the “A172 Kynurenine cell based assay, pIC50” value was “+++ (+++ = pIC50 ≥5.50)”.
With `CN1C(=O)N(C2CCN(c3cc(C(F)(F)F)cc4cncn34)CC2)C(=O)C1(C)C` [Compound 1034], the “hIDO biochemical assay, pIC50” value at IDO [1] is “++ (++ = pIC50 4.50-5.49)”. Moreover, the “SKOV3 Kynurenine cell based assay, pIC50” value at IDO [2] is listed as “++ (++ = pIC50 4.50-5.49)”. In addition, the “A172 Kynurenine cell based assay, pIC50” value on TDO [3] is reported as “++ (++ = pIC50 4.50-5.49)”. For the same compound, the “hTDO biochemical assay, pIC50” value on TDO [4] is reported as “++ (++ = pIC50 4.50-5.49)”.
Regarding `CC(=O)N1CCC(c2cc(C(F)(F)F)cn3cncc23)CC1` [Compound 1004], the “hIDO biochemical assay, pIC50” value at IDO [1] is reported as “+ (+ = pIC50 4.00-4.49)”. Besides, the “SKOV3 Kynurenine cell based assay, pIC50” value on IDO [2] is reported as “+/− (+/− = pIC50 <4.00)”. Moreover, the “A172 Kynurenine cell based assay, pIC50” value on TDO [3] is reported as “+ (+ = pIC50 4.00-4.49)”.
On to `CS(=O)(=O)c1ccc(-c2cc(C(F)(F)F)cn3cncc23)cc1` [Compound 1007], for which, at IDO [1], the “hIDO biochemical assay, pIC50” value was “+ (+ = pIC50 4.00-4.49)”. In addition, the “SKOV3 Kynurenine cell based assay, pIC50” value at IDO [2] is on record as “+ (+ = pIC50 4.00-4.49)”. Also, on TDO [3], the “A172 Kynurenine cell based assay, pIC50” value is listed as “+++ (+++ = pIC50 ≥5.50)”.
Turning to `CS(=O)(=O)N1CCN(c2cc(C(F)(F)F)cc3cncn23)CC1` [Compound 1019], on IDO [1], the “hIDO biochemical assay, pIC50” value is “++ (++ = pIC50 4.50-5.49)”. Moreover, the “SKOV3 Kynurenine cell based assay, pIC50” value on IDO [2] is “+ (+ = pIC50 4.00-4.49)”. For the same compound, the “A172 Kynurenine cell based assay, pIC50” value at TDO [3] was “++ (++ = pIC50 4.50-5.49)”. Moreover, the “hTDO biochemical assay, pIC50” value at TDO [4] is “++ (++ = pIC50 4.50-5.49)”.
